Patent US6800651B2 (Eli Lilly and Company, priority 2000, dated 2004)
Where two headings read alike, the source gives them in different places.

What was measured:
mGlu2 receptor = mGlu2 receptor (Homo sapiens, UniProt Q14416); test: Potentiation of glutamate-induced increase in intracellular calcium with a mGluR2 expressing cell line (FLIPR); format: cell-based; design: expressed in transfected cells; host or cells: RGT cells (co-transfected with GLAST), stably transfected with Galpha15; conditions: for Emax / Emax at 1 µM / Emax at 3 µM: read-out: % Maximal Response (mean ± SD, n = 2); for Emax at 1 µM: 1 μM compound, no agonist, glutamate series 30 μM to 10 nM; for Emax at 3 µM: 3 μM compound, Buffer (no agonist)
mGlu2 receptor, sequence (Q14416 19-872): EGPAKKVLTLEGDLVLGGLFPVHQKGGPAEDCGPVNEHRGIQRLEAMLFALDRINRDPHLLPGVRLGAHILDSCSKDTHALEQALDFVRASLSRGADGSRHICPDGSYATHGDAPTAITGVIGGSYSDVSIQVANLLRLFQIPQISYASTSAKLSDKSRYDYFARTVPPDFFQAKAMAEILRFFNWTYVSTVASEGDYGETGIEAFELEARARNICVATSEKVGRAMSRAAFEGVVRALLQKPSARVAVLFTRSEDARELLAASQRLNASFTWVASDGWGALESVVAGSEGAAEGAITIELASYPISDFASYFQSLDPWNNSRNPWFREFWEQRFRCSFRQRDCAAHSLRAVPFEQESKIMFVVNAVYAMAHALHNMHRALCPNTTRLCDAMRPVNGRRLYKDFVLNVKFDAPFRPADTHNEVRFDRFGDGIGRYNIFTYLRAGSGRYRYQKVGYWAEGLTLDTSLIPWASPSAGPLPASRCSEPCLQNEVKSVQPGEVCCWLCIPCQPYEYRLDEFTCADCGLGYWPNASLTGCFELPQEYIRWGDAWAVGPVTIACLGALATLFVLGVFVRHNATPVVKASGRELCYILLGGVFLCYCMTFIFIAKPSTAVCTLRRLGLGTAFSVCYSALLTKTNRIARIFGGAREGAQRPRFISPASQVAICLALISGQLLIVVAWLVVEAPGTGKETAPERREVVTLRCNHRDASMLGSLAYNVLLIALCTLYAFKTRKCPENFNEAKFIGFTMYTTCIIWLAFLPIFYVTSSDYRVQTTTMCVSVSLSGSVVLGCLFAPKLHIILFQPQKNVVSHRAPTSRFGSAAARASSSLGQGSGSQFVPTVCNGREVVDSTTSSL
Protocol: Potentiation of Glutamate-Induced Increase in Intracellular Calcium with a mGluR2 Expressing Cell Line.
Cell lines expressing human mGlu2 receptors were derived as previously described (Desai, Burnett, Mayne, Schoepp, Mol. Pharmacol. 48, 648-657, 1995) and cultured in DMEM with 5% dialyzed fetal bovine serum, 1 mM glutamine, 1 mM sodium pyruvate, 50 μg/ml Geneticin G418, and 0.2 mg/ml hygromycin B. Confluent cultures were passaged weekly. […] The RGT cell line expressing the mGluR2 receptors was stably transfected with the promiscuous G-protein, Galpha15 to change the signaling pathway to the mGlu2 receptor to one that could be easily measured through release of intracellular calcium. Thus, intracellular calcium levels were monitored before and after the addition of drugs on a Fluorometric Imaging Plate Reader (i.e. FLIPR, Molecular Devices). The following buffer was used throughout as an assay buffer: 10 mM KCl, 138 mM NaCl, 5 mM Ca Cl2, 1 mM MgCl2, 4 mM NaH2PO4, 10 mM Glucose, 10 mM HEPES, pH 7.4. Cells that had been plated 48 h prior at a density of 30-40,000 cells per well in a 96-well plate were loaded with a calcium-sensitive dye for 90 min at 25° C. Fluo-3 (2 mM in DMSO, Molecular Probes) were mixed with a equal volume of 10% pluronic acid in DMSO, and diluted to 8 μM into the buffer described above containing 10% fetal bovine serum to make the loading buffer. Following loading of the cells, the loading buffer was removed and replaced with assay buffer prior to drug addition and monitoring on the FLIPR.

mice = test: Electroshock-induced seizures (tonic extensor seizures); format: in vivo, mouse; conditions: electroshock 30 minutes later, percentage of mice protected from seizures
Protocol: Application of electrical stimulation by corneal electrodes to mice can induce tonic hindlimb-extensor seizures. Blockade of tonic extensor seizures induced by electroshock is considered predictive for drugs which block seizure propagation and may be effective in preventing various seizures in humans, including epileptic seizures.
Vehicle or a dose of a test drug are administered to groups of 5 to 10 mice each. Thirty minutes later, electroshock (10 mA, 0.2 sec duration) is administered by transcorneal electrodes. […] The data are reported as the percentage of mice which are protected from seizures.

[1] = 10 nM Glutamate + 1 μM compound
[2] = 30 nM Glutamate + 1 μM compound
[3] = 100 nM Glutamate + 1 μM compound
[4] = 300 nM Glutamate + 1 μM compound
[5] = 10 μM Glutamate + 1 μM compound
[6] = 30 μM Glutamate + 1 μM compound

In the case of `COc1ccccc1Oc1cccc(N(Cc2cccnc2)S(=O)(=O)CC(F)(F)F)c1` [Example 1, N-(3-(2-Methoxyphenoxy)phenyl)-N-(2,2,2-trifluoroethylsulfonyl)pyrid-3-ylmethylamine], the Emax (mGlu2 receptor; [1]) is reported as -0.3 ± 0.2%, the Emax (mGlu2 receptor; [2]) is reported as 2.2 ± 1.3% and the Emax (mGlu2 receptor; [3]) is reported as 1.5 ± 1.2%. It also gave an Emax (mGlu2 receptor; [4]) of 42.5 ± 4.3%, an Emax (mGlu2 receptor; 1 μM Glutamate + 1 μM compound) of 79.2 ± 14.6% and an Emax at 1 µM (mGlu2 receptor) of 0.1 ± 0.1%. For the same compound, the Emax (mGlu2 receptor; 3 μM Glutamate + 1 μM compound) was 112 ± 10.3%, the Emax (mGlu2 receptor; [5]) was 108 ± 10.7% and the “% Maximal Glutamate Response (as defined by 30 μM Glutamate) mean ± SD” value (mGlu2 receptor; 20 μM compound + 0.5 μM L-glutamate) was 85.5 ± 5.8%. For the same compound, the “% Maximal Glutamate Response (as defined by 30 μM Glutamate) mean ± SD” value (mGlu2 receptor; 20 μM compound alone) was 2.3 ± 0.8% and the Emax (mGlu2 receptor; [6]) was 117 ± 4.3%.
In the case of `O=S(=O)(CC(F)(F)F)N(Cc1cccnc1)c1cccc(Oc2ccccc2O)c1` [Example 23, N-(3-(2-Hydroxyphenoxy)phenyl)-N-(2,2,2-trifluoroethylsulfonyl)pyrid-3-ylmethylamine], the melting point is reported as 57.5 to 60 °C.
For `COc1ccccc1Oc1ccc(N(Cc2cccnc2)S(=O)(=O)CC(F)(F)F)cc1Cl` [Example 9, N-(4-(2-Methoxyphenoxy)-3-chlorophenyl)-N-(2,2,2-trifluoroethylsulfonyl)pyrid-3-ylmethylamine], the Emax (mGlu2 receptor; [1]) was 2.4 ± 0.3%, the Emax (mGlu2 receptor; [2]) was 4.7 ± 0.4% and the Emax (mGlu2 receptor; [3]) was 20.5 ± 4.3%. The Emax (mGlu2 receptor; [4]) was 60 ± 10.6%, the Emax (mGlu2 receptor; 1 μM Glutamate + 1 μM compound) was 93.1 ± 2.5% and the Emax at 1 µM (mGlu2 receptor) was 4.2 ± 2.7%. For the same compound, the Emax (mGlu2 receptor; 3 μM Glutamate + 1 μM compound) was 102 ± 8.1%, the Emax (mGlu2 receptor; [5]) was 103 ± 6.2% and the Emax (mGlu2 receptor; [6]) was 108 ± 12.3%.
`O=S(=O)(CC(F)(F)F)N(Cc1cccnc1)c1ccc(Oc2ccccc2)cc1` [Example 22, N-(4-(Phenoxy)phenyl)-N-(2,2,2-trifluoroethylsulfonyl)pyrid-3-ylmethylamine] showed an Emax (mGlu2 receptor; 1 nM APDC + 3 μM compound) of 0.1 ± 0.7%, an Emax (mGlu2 receptor; 1 nM DCG IV + 3 μM compound) of -0.1 ± 0.6% and an Emax (mGlu2 receptor; 30 nM APDC + 3 μM compound) of 0.5 ± 1.5%. For the same compound, the Emax (mGlu2 receptor; 30 nM DCG IV + 3 μM compound) was 11.1 ± 6.1%, the Emax (mGlu2 receptor; 100 nM APDC + 3 μM compound) was 0.2 ± 0.6% and the Emax (mGlu2 receptor; 100 nM DCG IV + 3 μM compound) was 83.3 ± 10.5%. For the same compound, the Emax (mGlu2 receptor; 300 nM APDC + 3 μM compound) was 28.4 ± 1.7%, the Emax (mGlu2 receptor; 300 nM DCG IV + 3 μM compound) was 133 ± 5.5% and the Emax (mGlu2 receptor; 1 μM APDC + 3 μM compound) was 92 ± 3.4%. The Emax (mGlu2 receptor; 1 μM DCG IV + 3 μM compound) was 141 ± 5.9%, the Emax (mGlu2 receptor; 3 μM APDC + 3 μM compound) was 114 ± 0.8% and the Emax (mGlu2 receptor; 3 μM DCG IV + 3 μM compound) was 153 ± 2.8%. It also gave an Emax at 3 µM (mGlu2 receptor; APDC series) of 4.7 ± 0.4%, an Emax at 3 µM (mGlu2 receptor; DCG IV series) of 3.7 ± 1.4% and an Emax (mGlu2 receptor; 10 μM APDC + 3 μM compound) of 119 ± 4%. For the same compound, the Emax (mGlu2 receptor; 10 μM DCG IV + 3 μM compound) was 148 ± 1.5%, the Emax (mGlu2 receptor; 30 μM APDC + 3 μM compound) was 120 ± 10% and the Emax (mGlu2 receptor; 30 μM DCG IV + 3 μM compound) was 138 ± 7.1%.
For `N[C@@H](CCC(=O)O)C(=O)O` [Glutamate, L-glutamate, reference compound], the “% Maximal Glutamate Response (as defined by 30 μM Glutamate) mean ± SD” value (mGlu2 receptor; 0.5 μM L-glutamate alone) was 1.9 ± 1.0%.
In the case of `CCS(=O)(=O)N(Cc1cccnc1F)c1ccc(Oc2ccc(F)cc2F)cc1` [Example 615, N-(4-(2,4-Difluorophenoxy)phenyl)-N-(ethanesulfonyl)-2-fluoropyrid-3-ylmethylamine], the melting point is reported as 110 to 112 °C.
In the case of `CCS(=O)(=O)N(Cc1cccnc1)c1cccc(-c2ccc(C#N)cc2)c1` [Example 590], the “Percent Protection” value (mice; 30 mg/kg ip) is reported as 60% and the “Percent Protection” value (mice; 100 mg/kg ip) is reported as 100%.
